The text below walks through data of patent US4804743A, “Proline-containing renin inhibitors” (Warner-Lambert Copmany, priority 1987, dated 1989).

This test concerns the target T1, renin (Homo sapiens, UniProt P00797).
T1 sequence (P00797 67-406): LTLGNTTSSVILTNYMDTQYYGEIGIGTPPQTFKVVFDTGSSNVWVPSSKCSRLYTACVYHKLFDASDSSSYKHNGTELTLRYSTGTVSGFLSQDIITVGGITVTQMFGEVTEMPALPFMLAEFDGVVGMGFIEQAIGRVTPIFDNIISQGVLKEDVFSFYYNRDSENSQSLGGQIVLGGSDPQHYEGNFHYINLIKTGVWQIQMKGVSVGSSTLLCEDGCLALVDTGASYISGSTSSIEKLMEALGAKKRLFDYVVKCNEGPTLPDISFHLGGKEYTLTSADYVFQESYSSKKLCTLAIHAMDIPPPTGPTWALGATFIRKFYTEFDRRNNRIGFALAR
The test can be described thus: in vitro renin inhibitory activity, radioimmunoassay for angiotensin I. Type of test: biochemical. Particulars: renin incubated two hours at 37° with substrate angiotensinogen; angiotensin I measured by radioimmunoassay. As for the experimental part:
The effectiveness of the aforementioned compounds is determined by a test for in vitro renin inhibitory activity. This activity is determined by a standard radioimmunoassay for angiotensin I. In this assay the enzyme, renin, incubated for two hours at 37° in the presence of a substrate, angiotensinogen, generates the product, angiotensin I. Test compounds are added to the incubation mixture. Relative activity is reported as the IC50, which is the molar concentration of test compound causing a 50% inhibition of the renin activity.

Consider “BOC-PHE-LEU-STA-GLN-PRO-OCH3 [Example 8]”, for which the IC50 came out at 1100 nM.
